{"source": "patent US6464980B1", "about": "“MAGE-1 c-terminal immunogenic peptides” (Epimmune Inc., priority 1993, dated 2002)", "key": {"HLA-A3 class I molecule": {"target": "HLA-A3 class I molecule (Homo sapiens, UniProt P04439)", "assay": "class I binding assay, HLA-A3", "settings": "Table 2 MAGE CTL targets, column A3; unit not given", "procedure": "(§1) Peptides comprising the CTL epitopes are synthesized and the ability to bind appropriate MHC molecules is determined in assays using, for example, purified class I molecules and radioiodinated peptides and/or cells expressing empty class I molecules by, for instance, immunofluorescent staining and flow microfluorimetry, peptide-dependent class I assembly assays, and inhibition of CTL recognition by peptide competition. Those peptides that bind to the class I molecule are further chosen for their ability to serve as targets for CTLs derived from afflicted individuals, as well as for their capacity to induce primary in vitro or in vivo CTL responses that can give rise to CTL populations capable of reacting with tumor cells as therapeutic agents. Methods for determining allele-specific peptides and peptide motifs are described in co-pending commonly owned applications U.S. Ser. No. 027,146 and U.S. Ser. No. 027,746, which are incorporated herein by reference.\n(§2) These peptides were then evaluated as to their capacity to bind to the appropriate class I molecules using specific binding assays as described in copending and commonly owned application U.S. Ser. No. 08/027,746, incorporated herein by reference."}, "HLA-A11 class I molecule": {"test_system": "HLA-A11 class I molecule", "assay": "class I binding assay, HLA-A11", "set-up": "species or system human", "settings": "Table 2 MAGE CTL targets, column A11; unit not given", "procedure": "as §1, §2"}, "HLA-A2 class I molecule": {"target": "HLA-A2 class I molecule (Homo sapiens, UniProt P04439, D140Y/D185E/D98H/E176V/E277Q/G131W/G231S/I119V/I121R/I166T/I218V/L300P/L318F/N151K/N90K/P208A/P217A/Q86G/Q94H/R138H/R169H/T345S)", "assay": "class I binding assay, HLA-A2", "settings": "Table 2 MAGE CTL targets, column A2; unit not given", "procedure": "as §1, §2"}, "HLA-A1 class I molecule": {"test_system": "HLA-A1 class I molecule", "assay": "class I binding assay, HLA-A1", "set-up": "species or system human", "settings": "Table 2 MAGE CTL targets, column A1; unit not given", "procedure": "as §1, §2"}, "HLA-A24 class I molecule": {"test_system": "HLA-A24 class I molecule", "assay": "class I binding assay, HLA-A24", "set-up": "species or system human", "settings": "Table 2 MAGE CTL targets, column A24; unit not given", "procedure": "as §1, §2"}, "[1]": {"target": "HLA-A1 class I molecule (human)", "assay": "class I binding assay as described in U.S. Ser. No. 08/027,746; format not described here"}, "[2]": {"target": "HLA-A24.1 class I molecule (human)", "assay": "class I binding assay as described in U.S. Ser. No. 08/027,746; format not described here"}}}
{"molecule": "ALAETSYVK [Id 1072.38, MAGE-1 C-terminal peptide, position 271,9-mer, motif A03/11]", "values": [{"measurement": "A3 (binding to class I molecule)", "setting": "HLA-A3 class I molecule", "result": 0.3100}, {"measurement": "A11 (binding to class I molecule)", "setting": "HLA-A11 class I molecule", "result": 0.3600}]}
{"molecule": "ALAETSYVKV [Id 1072.33]", "values": [{"measurement": "A2 (binding to class I molecule)", "setting": "HLA-A2 class I molecule", "result": 0.0150}]}
{"molecule": "DLVQEKYLEY [1072 40, MAGE-1 peptide, position 242, 10-mer, motif A03]", "values": [{"measurement": "A3 (binding to class I molecule)", "setting": "HLA-A3 class I molecule", "result": 0.0320}, {"measurement": "A11 (binding to class I molecule)", "setting": "HLA-A11 class I molecule", "result": 0.0051}]}
{"molecule": "ETSYVKVLEY [Id 1072.28, MAGE-1 C-terminal peptide, position 274, 10-mer, motif A01/11]", "values": [{"measurement": "A1 (binding to class I molecule)", "setting": "HLA-A1 class I molecule", "result": 0.5600}]}
{"molecule": "LVQEKYLEY [Id 1072.42, MAGE-1 peptide, position 243,9-mer, motif A11]", "values": [{"measurement": "A3 (binding to class I molecule)", "setting": "HLA-A3 class I molecule", "result": 0.0026}, {"measurement": "A11 (binding to class I molecule)", "setting": "HLA-A11 class I molecule", "result": 0.0340}]}
{"molecule": "RALAETSYVK (RALAETSYVKVK) [Id 1072.39, MAGE-1 C-terminal peptide, position 270, 10-mer, motif A03/11]", "values": [{"measurement": "A3 (binding to class I molecule)", "setting": "HLA-A3 class I molecule", "result": 0.1800}, {"measurement": "A11 (binding to class I molecule)", "setting": "HLA-A11 class I molecule", "result": 0.2400}]}
{"molecule": "RVRFFFPSLR [Id 1072.37, MAGE-1 C-terminal peptide, position 290, 10-mer, motif A03/11]", "values": [{"measurement": "A3 (binding to class I molecule)", "setting": "HLA-A3 class I molecule", "result": 0.4300}, {"measurement": "A11 (binding to class I molecule)", "setting": "HLA-A11 class I molecule", "result": 0.0089}]}
{"molecule": "SYVKVLEYVI [Id 1072.43, MAGE-1 C-terminal peptide, position 276, 10-mer, motif A24]", "values": [{"measurement": "A24 (binding to class I molecule)", "setting": "HLA-A24 class I molecule", "result": 0.0360}]}
{"molecule": "TSYVKVLEY [Id 1072.29, MAGE-1 C-terminal peptide, position 275,9-mer, motif A01/11]", "values": [{"measurement": "A1 (binding to class I molecule)", "setting": "HLA-A1 class I molecule", "result": 0.0990}]}
{"molecule": "TSYVKVLEY [Id 1072.36, MAGE-1 C-terminal peptide, position 275,9-mer, motif A03/11]", "values": [{"measurement": "A3 (binding to class I molecule)", "setting": "HLA-A3 class I molecule", "result": 0.7100}, {"measurement": "A11 (binding to class I molecule)", "setting": "HLA-A11 class I molecule", "result": 0.0100}]}
{"molecule": "YVIKVSARV [Id 1072.34]", "values": [{"measurement": "A2 (binding to class I molecule)", "setting": "HLA-A2 class I molecule", "result": 0.0140}]}
{"molecule": "YVIKVSARVR [Id 1072.41, MAGE-1 C-terminal peptide, position 283, 10-mer, motif A03]", "values": [{"measurement": "A3 (binding to class I molecule)", "setting": "HLA-A3 class I molecule", "result": 0.0190}, {"measurement": "A11 (binding to class I molecule)", "setting": "HLA-A11 class I molecule", "result": 0.0009}]}
{"molecule": "TSYVKVLEY", "values": [{"measurement": "binding value under column A1 (quantity not explained)", "setting": "[1]", "result": 0.099}]}
{"molecule": "ETSYVKVLEY", "values": [{"measurement": "binding value under column A1 (quantity not explained)", "setting": "[1]", "result": 0.56}]}
{"molecule": "SYVKVLEYVI", "values": [{"measurement": "binding value under column A24 (quantity not explained)", "setting": "[2]", "result": 0.036}]}
